Where no end group is shown, it is not given here. [ ]: non-standard residue; d: D form.
Key:
Assay type in all cases: cell-based
8226 cells [1] = test: Lysosensor staining of acidic vesicles, confocal microscopy; settings: 100 μg/ml, six hours, compared to control cells
Procedure: (§1) Lysosensor green was used to detect acidic compartments and live cell imaging was performed by confocal microscopy. Shown is a representative figure. The experiment was repeated three independent times and similar results were obtained.
(§2) Lysosensor staining. 35 mm glass bottom microwell dishes were incubated with 10 ul Cell-tak (BD biosciences San Jose, Calif.) and 290 ul 0.5M sodium bicarbonate (Sigma) for 30 minutes. The plates were aspirated and 200,000H929 or 8226 cells were plated. Cells were then treated with either water (VC), 100 μg/ml HYD1 or 100 μg/ml HYD1S for 6 hours. After the 6-hour incubation, the plates were aspirated and washed once with warm media. Media containing 1 μM lysosensor DND-189 (Molecular Probes, Carlsbad Calif.) and 20 μM Hoechst 33342 (Molecular Probes) was added and samples were incubated for an additional 30 minutes. Samples were analyzed with a Leica DMI6000 inverted TCS SP5 confocal scanner (Leica Microsystems, Germany). 405 Diode and Argon laser lines were applied to excite the samples and tunable filters were used to minimize the crosstalk between fluorochromes. Gain, offset, and pinhole setting were identical for all samples within the treatment group. Image sections at […] were captured with photomultiplier detectors and maximum projections were prepared with the LAS AF software version 1.6.0 build 1016 (Leica Microsystems, Germany).

H929 cells [2] = test: as above; settings: 100 μg/ml, six hours, compared to control cells
Procedure: as §1, §2

8226 cells [3] = test: HS-5 co-culture (SF+A) model of drug resistance, melphalan apoptosis
Procedure: (§3) Co-culture model. HS-5/GFP cells were plated at a density of 500,000 cells per ml and incubated overnight. Myeloma cells were incubated with vehicle control (water), 50 μg/ml HYD1 or 50 μg/ml HYD1S 30 minutes prior to the addition of myeloma cells (400,000 cell/ml) to either control plates or plates containing HS-5 cells. Myeloma cells were incubated with HS-5 cells for three hours prior to the addition of melphalan. Apoptotic cells were measured in GFP negative myeloma cells, by annexin PE staining and FACS analysis (n=9). ANOVO was performed to determine significance between conditions.
(§4) Briefly, 8226 myeloma cells were pre-incubated with varying concentrations of either HYD1 or the scrambled HYD1S peptide for 30 minutes prior to allowing cells to attach to FN for two hours. Following two hours of cell adhesion, the amount of cells adherent to FN was measured. The next objective was to determine whether treatment of tumor cells with HYD1 results in potentiation of melphalan induced cell death in the BMS co-culture model (SF+A). […] For these studies, the HYD1 and HYD1S were pre-incubated with the […] for 30 minutes, and then cells and culture media containing the peptide were placed into the S-5 culture dish. Myeloma cells were co-cultured for an additional 3 hours with HS-5 cells before the addition of melphalan. Twenty-four hours after drug treatment, apoptosis was measured by Annexin V-PE positive events by FACS analysis. The HS-5 cells constitutively express GFP and thus it is possible to gate GFP negative cells only (myeloma cells) for the apoptotic analysis.

H929 cells [4] = test: as above
Procedure: as §3, §4

prostate tumor cell = test: Random haptotaxis (cell migration) on laminin 322 (laminin 5); settings: soluble peptide, cells grown on ligand before treatment
Text: Defining the minimal region of HYD1 necessary to potentiate drug-induced apoptosis in suspension and adherent cultures is of interest. Below is a study to determine the minimal HYD1 sequence required to block prostate tumor cell migration. Similar studies as those outlined below and using the same peptide sequences will be used to determine the minimal amino acid sequence required for potentiation of drug induced apoptosis.
This response to the peptide is independent of disrupting adhesion to laminin 322 (laminin 5) since the cells were grown on a ligand before treatment with the peptide. […] All other alanine-substitution mutants resulted cell migration, i.e., a loss of peptide activity.
Using the negative control scrambled peptide, HYDS (SEQ ID NO:44), to indicate 100% cell migration, several truncated peptides including, ikmviswkg (SEQ ID NO:22), kmviswkg (SEQ ID NO:39), and kikmviswk (SEQ ID NO:37) were effective at blocking cell migration by approximately 50%.

ERK = test: Activation of ERK signaling
Procedure: HYD1, when introduced as a soluble ligand, completely blocks random hapotaxis on laminin 322 and enhanced cellular signals are coupled with the loss of cell motility. […] Using this endpoint as an indicator of HYD1 bioactivity, the truncated and alanine-substituted variants of HYD1 were tested for their ability to activate ERK. Activation of ERK at 10 minutes post-treatment was conserved with alanine-substitution only at the N-terminal lysine and C-terminal glycine (FIG. 16A-1). […] Taken together (FIG. 16C-2), the results (FIGS. 16A-1, 16A-2, 16B, 16C-1) indicate that activation of ERK signaling required ikmviswxx (SEQ ID NO:48).

Substance: kikmviswkg ([dK][dI][dK][dM][dV][dI][dS][dW][dK]G) [HYD1]
- number and size of acidic vesicles (8226 cells [1]): increase in the number and size of acidic vesicles
- number and size of acidic vesicles (H929 cells [2]): increase in the number and size of acidic vesicles
- resistance to melphalan associated with the bone marrow stroma model (8226 cells [3]; 8226 cells): completely reversed resistance
- potentiation of melphalan-induced apoptosis in the SF+A model (8226 cells [3]; 8226 cells co-cultured with HS-5, 50 μg/ml peptide, with melphalan): potentiates melphalan-induced apoptosis
- resistance to melphalan associated with HS-5 co-culture (H929 cells [4]; H929 cells): reduced resistance
- potentiation of melphalan-induced apoptosis in the SF+A model (H929 cells [4]; H929 cells co-cultured with HS-5, 50 μg/ml peptide, with melphalan): potentiates melphalan-induced apoptosis
- blocking of random haptotaxis on laminin 322 (laminin 5) (prostate tumor cell): completely blocks random haptotaxis
- time of maximal activation of ERK post-treatment (ERK): 10 min
- activation of ERK (ERK; 10 minutes post-treatment): induces activation of ERK

From patent publication US7632814B2, “HYD1 peptides as anti-cancer agents” (University of South Florida, priority 2006, dated 2009)
